Values of other authors, collected in PMC6768041 (Chemistry Central Journal, 2018).

What was measured:
hMAO-A = target: T1, hMAO-A (Homo sapiens, UniProt P21397); details: cited from earlier work
T1 construct: host or cells: insect cells (BTI-TN-5B14), recombinant baculovirus
T1 sequence (P21397 1-527): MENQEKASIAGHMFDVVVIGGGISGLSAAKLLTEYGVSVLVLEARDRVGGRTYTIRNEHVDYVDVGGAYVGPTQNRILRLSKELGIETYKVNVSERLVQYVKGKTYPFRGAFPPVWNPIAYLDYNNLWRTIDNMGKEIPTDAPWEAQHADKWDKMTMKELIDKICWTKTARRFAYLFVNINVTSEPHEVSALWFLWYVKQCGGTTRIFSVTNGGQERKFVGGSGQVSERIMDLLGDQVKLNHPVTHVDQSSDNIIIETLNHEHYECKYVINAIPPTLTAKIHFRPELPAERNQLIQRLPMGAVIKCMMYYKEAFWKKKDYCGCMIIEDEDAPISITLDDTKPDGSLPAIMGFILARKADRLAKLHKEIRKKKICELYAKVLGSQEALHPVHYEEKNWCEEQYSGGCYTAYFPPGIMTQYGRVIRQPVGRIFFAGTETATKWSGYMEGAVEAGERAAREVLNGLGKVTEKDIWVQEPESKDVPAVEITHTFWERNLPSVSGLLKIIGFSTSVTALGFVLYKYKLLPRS

hMAO-B = target: T2, hMAO-B (Homo sapiens, UniProt P27338); parameters: method as in PMID 26592858; details: cited from earlier work
T2 construct: host or cells: insect cells (BTI-TN-5B14), recombinant baculovirus
T2 sequence (P27338 1-520): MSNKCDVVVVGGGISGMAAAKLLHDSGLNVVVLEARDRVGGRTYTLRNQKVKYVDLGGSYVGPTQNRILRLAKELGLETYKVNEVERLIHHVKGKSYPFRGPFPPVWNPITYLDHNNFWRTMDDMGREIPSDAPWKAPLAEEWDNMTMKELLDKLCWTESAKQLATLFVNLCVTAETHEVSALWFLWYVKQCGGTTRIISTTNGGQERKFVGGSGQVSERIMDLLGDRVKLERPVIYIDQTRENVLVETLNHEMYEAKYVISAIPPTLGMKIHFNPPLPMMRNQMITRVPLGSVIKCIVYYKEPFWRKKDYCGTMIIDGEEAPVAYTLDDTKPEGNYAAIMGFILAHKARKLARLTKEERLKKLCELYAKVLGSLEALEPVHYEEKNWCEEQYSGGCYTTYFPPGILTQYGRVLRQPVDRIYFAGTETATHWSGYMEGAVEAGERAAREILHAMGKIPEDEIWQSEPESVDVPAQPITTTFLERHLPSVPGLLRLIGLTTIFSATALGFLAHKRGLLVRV

SMILES: COc1cc(/C=C/C(=O)O)ccc1O [Ferulic acid]
- MAO inhibition value hMAO-A (hMAO-A): 7.55 ± 0.49 µM
- MAO inhibition value hMAO-B (hMAO-B): 24.00 ± 1.98 µM
